# Where a name gives a salt, the structure may show the parent alone. Read-outs that look alike come from different tables or passages of the source.
# What was measured:
# [1] = Maximum aqueous solubility (shaken in water at 37°C, filtered, UV spectrum); format: physicochemical; settings: read-out: Solubility when dissolved at 50mg/ml
# [2] = Stability: HPLC-PDA assay before and after drying; format: physicochemical; settings: for Amount: 5 mg in 5 mL
# Experimental: An assay of TRI 50c and its sodium and lysine salts before and after drying.
# For sample analysis, 5 mg of dried and non-dried material was weighed in a 5 mL volumetric flask and dissolved in 1 mL acetonitrile and filled up with demineralised water to 5 mL.
# The quantitative evaluation was performed using an HPLC-PDA method.
# [3] = tested on: thrombin time and APTT; format: in vivo, beagle dogs; settings: dog
# Experimental: Plasma was prepared by centrifugation and frozen at minus 20°C pending analysis.
# [4] = target: T1, thrombin (Homo sapiens, UniProt P00734); assay: Thrombin amidolytic assay (S2238, Vmax); format: biochemical; settings: TRI 50b as external control; Fig. 1
# T1 construct: purchased HTI, via Cambridge Bioscience
# Experimental: Chromogenic substrate S2238 dissolved to 4mM (25mg + 10ml) in water. Diluted to 50uM with assay buffer for use in assay at 5µM. (S2238 is H-D-Phe-Pip-Arg-pNA).
# Thrombin obtained from HTI, via Cambridge Bioscience, and aliquoted at 1mg/ml with assay buffer. Dilute to 100ng/ml with assay buffer and then a further 1 in 3 for use in the assay.
# • 110µl assay buffer • 50ul 5µg/ml thrombin • 20µl vehicle or compound solution • 5 min at 37°C • 20µl 50µM S2238
# [5] = i.v. pharmacokinetics in rats; settings: rat
# Experimental: (§1) Rats, body weight circa 250-300g were used. The animals were fasted only on the day of use for the iv stage.
# (§2) Just before administration, 5 volumes of this solution is mixed with 3 volumes of 5% kollidon 17 8F.
# (§3) Both compounds were given at a dose of 1.0mg/kg iv.
# (§4) The compounds were dosed in a PEG/ethanol/kollidon formulation which was prepared immediately before, as described immediately under the heading "Dose": Stock 15.0mg/ml. This was dosed at 1.33ml/kg (equivalent to 30mg/kg).
# (§5) A pre dose sample was taken followed by: 0, 2, 5, 10, 20, 30, 40, 60 and 90 minutes post dose.
# (§6) This was obtained by centrifugation (3000 RPM for 10 min) and stored at -20°C prior to analysis.
# [6] = tested on: washed platelets; assay: Aggregation of washed platelets; format: cell-based
# [7] = tested on: platelet rich thrombus; assay: Rabbit extracorporeal shunt model; format: in vivo, NZW rabbits; settings: for THROMBUS WEIGHT AFTER 20 minute run: n=5
# Excerpt: The technique describes an animal model in which a platelet rich thrombus is produced. The activity of TRI 50b and heparin are compared.
# The carotid artery and jugular vein of anaesthetised rabbits were used to create an extracorporeal circuit containing a suspended foreign surface (silk thread). Thrombus deposition is initiated by creation of high sheer stress turbulent arterial blood flow, platelet activation, followed by coagulation in the presence of thrombogenic surfaces. Histopathological studies have shown that the thrombus is platelet rich.
# NZW rabbits (males 2.5-3.5 kg) were used. The animals were allowed food and water up to the induction of anaesthesia.
# Animals were premedicated with […] (Hypnorm) 0.15 ml total by intramuscular injection. General anaesthesia was induced with methohexitone (10 mg/ml) to effect, followed by endotracheal intubation. Anaesthesia was maintained with isoflurane (1-2.0 %) carried in oxygen /nitrous oxide.
# The animals were placed in dorsal recumbency and the ventral cervical region prepared for surgery. The left carotid artery and right jugular vein were exposed. The artery was cannulated with a large Portex® catheter (yellow gauge), cut to a suitable length. The vein was cannulated with a Silastic® catheter. The shunt comprised of a 5 cm length of 'auto analyser' line (purple /white gauge). Joins to the shunt on the arterial side were made with intermediate size Silastic® tubing. The shunt was filled with saline before exposure to the circulation. The right femoral artery was cannulated for the measurement of blood pressure.
# The central section of the shunt contained a thread 3 centimetres in length. This consisted of 000 gauge Gutterman sewing silk so as to give four strands with a single knot at the end. (The knot section was outside the shunt).
# Blood flow velocity was determined by use of 'Doppler' probes (Crystal Biotech). A silastic probe was positioned over the carotid artery at the point of insertion of the arterial catheter. Flow was recorded on a chart recorder using heat sensitive paper.
# [8] = tested on: platelet procoagulant activity; assay: Inhibition of platelet procoagulant activity; format: cell-based
# Excerpt: Platelet pro-coagulant activity may be observed as the increase, in rate of activation of prothrombin by factor Xa in the presence of factor Va upon the addition of platelets pretreated with thrombin, caused by thrombin alone, collagen alone or a mixture of thrombin and collagen. This property is due to an increase in anionic phospholipid on the surface of the platelet with concomitant release of microvesicle from the surface. This is an essential physiological reaction and people whose platelets have reduced ability to generate procoagulant activity (Scott syndrome) show an increased tendency for bleeding.
# Washed platelets were treated with either 1.15nM thrombin, 23µg/ml collagen or a mixture of both at the same concentration at 37°C. TRI 50b was added either for 1 minute prior to the addition of activator or immediately after the incubation with activator. Platelet procoagulant activity was determined as described previously (Goodwin C A et al, Biochem J. 1995 8, 308: 15-21).
# [9] = Hydrolysis under HPLC assay conditions; format: physicochemical; settings: acid conditions / sample preparation of an HPLC assay
# [10] = rat, in vivo, iv, 1 mg/kg
# Experimental: as §1, §2, §3, §4, §5, §6
# [11] = dry (desiccator over phosphorus pentoxide for 1 week), listed as TRI 50c Na salt, monosodium salt
# [12] = non-dried, listed as TRI 50c Na salt, monosodium salt
# [13] = dry (desiccator over phosphorus pentoxide for 1 week)
compound,measurement,setting,value
COCCC[C@H](NC(=O)[C@@H]1CCCN1C(=O)[C@@H](Cc1ccccc1)NC(=O)OCc1ccccc1)B(O)O [lithium salt],solubility,[1],43 mg/mL
"COCCC[C@H](NC(=O)[C@@H]1CCCN1C(=O)[C@@H](Cc1ccccc1)NC(=O)OCc1ccccc1)B(O)O [TRI 50c sodium salt, Cbz-(R)-Phe-(S)-Pro-(R)-Mpg-B(OH)2 monosodium salt]",Amount,[2]; [11],1024 µg/mL
same,Purity (% area),[2]; [11],98.81 % area
same,Amount,[2]; [12],1005.8 µg/mL
same,Purity (% area),[2]; [12],98.61 % area
same,thrombin time,"[3]; 1.0 mg/kg i.v., 2 minutes post dose, base line 14.3 seconds, listed as sodium salt, monosodium salt, 1 mg/kg",154.4 s
same,thrombin time,"[3]; 1.0 mg/kg i.v., 2 minutes post dose, base line 14.3 seconds, monosodium salt, 1 mg/kg",154 s
same,thrombin time,"[3]; 1.0 mg/kg i.v., one hour post dose",26 s
same,elevation in the APTT,"[3]; 1.0 mg/kg i.v., post dose",1.3 times
same,APTT,"[3]; 1.0 mg/kg i.v., post dose, base line 19 seconds",25 s
same,Thrombin clotting time elevation above base line,"[3]; 1.0 mg/kg i.v., two minutes following dosing",10.8 times
same,tolerability / adverse events,"[3]; in vivo, iv, 1 mg/kg",tolerated well with no adverse events
COCCC[C@H](NC(=O)[C@@H]1CCCN1C(=O)[C@@H](Cc1ccccc1)NC(=O)OCc1ccccc1)B(O)O [TRI 50c Lys salt],Purity (% area),[2]; [13],90.17 % area
same,Amount,[2]; [13],813.3 µg/mL
same,Purity (% area),[2]; non-dried,92.25 % area
same,Amount,[2]; non-dried,809.8 µg/mL
COCCC[C@H](NC(=O)[C@@H]1CCCN1C(=O)[C@@H](Cc1ccccc1)NC(=O)OCc1ccccc1)B(O)O [magnesium salt of TRI 50c],activity in thrombin amidolytic assay,[4],the same activity as TRI 50b
"COCCC[C@H](NC(=O)[C@@H]1CCCN1C(=O)[C@@H](Cc1ccccc1)NC(=O)OCc1ccccc1)B1OC(C)(C)C(C)(C)O1 [TRI 50b, Cbz-(R)-Phe-Pro-BoroMpg-OPinacol]",Area under curve,"[5]; 1.0mg/kg iv, n=3",1.68
same,Max Plasma Concentration (observed),"[5]; 1.0mg/kg iv, n=3",2.24
same,Vd,"[5]; plasma, iv, 1 mg/kg",0.5 L/kg
same,"effect on ADP, collagen or epinephrine induced aggregation",[6],does not have an effect
same,THROMBUS WEIGHT AFTER 20 minute run,[7]; 3.0mg/kg iv,15.3 ±2.2 mg(n=5)
same,bleeding,[7]; 3mg/kg to 10mg/kg iv,without bleeding
same,THROMBUS WEIGHT AFTER 20 minute run,[7]; 10mg/kg iv,9.78 ±1.9 mg(n=5)
same,IC50,"[8]; agonist Collagen (23µg/ml), TRI 50b added 1 minute prior to activator, read-out: I C50 plus pre-incubation",200 nM
same,IC50,"[8]; agonist Collagen (23µg/ml), TRI 50b added after incubation with activator, read-out: I C50 without incubation",300 nM
same,IC50,"[8]; agonist Thrombin/Collagen, TRI 50b added 1 minute prior to activator, read-out: I C50 plus pre-incubation",3 nM
same,IC50,"[8]; agonist Thrombin/Collagen, TRI 50b added after incubation with activator, read-out: I C50 without incubation",80 nM
same,hydrolysis to the acid form (TRI 50c),[9],short half life
"COCCC[C@H](NC(=O)[C@@H]1CCCN1C(=O)[C@@H](Cc1ccccc1)NC(=O)OCc1ccccc1)B(O)O [TRI 50c, Cbz-(R)-Phe-(S)-Pro-(R)-boroMpg-OH]",Area under curve,[10],1.48
same,Max Plasma Concentration (observed),[10],2.35
same,Volume Distribution,[10],0.59 L/kg
same,Purity (% area),[2]; [13],82.00 % area
same,Amount,[2]; [13],1000.0 µg/mL
